# Measured values taken from article PMC1784591 (Infectious Diseases in Obstetrics and Gynecology, 2004).
# Structures can show the parent of a compound that is named as a salt.
# Experiments:
# [1] = system: term human placenta (single cotyledon); test: ex vivo human placental perfusion, closed-closed recirculation system; format: in vitro ADME; conditions: system closed for 1-5 h; peak and trough concentrations
# [2] = cited from earlier work
# [3] = cited from earlier work; remark: listed apart in the source
# [4] = cited from earlier work; remark: listed apart in the source
# [5] = system: term human placenta (single cotyledon); test: ex vivo human placental perfusion, single cotyledon, open system; conditions: range over placentas
structure (smiles),measurement,setting,value
"CN[C@H](CC(C)C)C(=O)N[C@H]1C(=O)N[C@@H](CC(N)=O)C(=O)N[C@H]2C(=O)N[C@H]3C(=O)N[C@H](C(=O)N[C@H](C(=O)O)c4cc(O)cc(O)c4-c4cc3ccc4O)[C@H](O)c3ccc(c(Cl)c3)Oc3cc2cc(c3O[C@@H]2O[C@H](CO)[C@@H](O)[C@H](O)[C@H]2O[C@H]2C[C@](C)(N)[C@H](O)[C@H](C)O2)Oc2ccc(cc2Cl)[C@H]1O [vancomycin, vancomycin hydrochloride]",accumulation of vancomycin (fetal),[1],No accumulation
same,excreted by glomerular filtration,[2]; non-pregnant subjects,90%
same,CSF levels,[2]; without meningitis,undetectable
same,heparin concentration above which vancomycin precipitates when mixed,[3],more than 1 unit/ml
same,fraction bound to plasma proteins (unavailable for transfer),[4],a third to a half
same,bound to plasma proteins,[4]; non-pregnant subjects,30-55%
same,"Clearance index, mean peak range",[5]; peak concentrations,0.000-0.080
same,"Clearance index, mean trough range",[5]; trough concentrations,0.00-0.17
